The compounds below were run on virus (assay: Intranasal administration - simulation in vitro (plaque inhibition test, compound applied to the lids of the petri dishes)). Settings: 1 μg applied in ethanol to the lids of the petri dishes; confluent sheet of cells covered with agarose gel.
Type: cell-based
Text: (§1) Activity may be detected by the plaque inhibition (PI) test and measured by the plaque reduction (PR) test. Both assays involve the formation of a monolayer cell culture in a petri dish followed by infection with a virus suspension, and then overlaying the culture with nutrient agarose in the form of a gel. This gel ensures that there is no spread of virus throughout the culture and thus areas of localised cell destruction, or plaques, are formed.
In the plaque inhibition test a filter paper disc which holds 0.01 ml when impregnated with a solution of compound is placed on top of the agarose gel. The compound may then diffuse throughout the gel so that its greatest concentration will be around the disc and its lowest concentration towards the periphery of the petri dish. The efficacy of the compound may be detected by observing the zone of inhibition of plaque formation.
Petri dishes were prepared, as for the plaque inhibition test and the confluent sheet of cells was covered with a layer of agarose gel. The compound, 2-phenyltetrahydroisoquinoline (1 μg) was dissolved in ethanol, and applied to the lids of the petri dishes. When the ethanol had evaporated, leaving the compound spread over the inside of the lids, these were replaced on the petri dishes.

`c1ccc(N2CCc3ccccc3C2)cc1` [Example 4, 2-phenyl-1,2,3,4-tetrahydroisoquinoline] was tested, and the “inhibition of plaque formation” value was “total inhibition of plaque formation”.

What follows are compounds tested on rhinovirus serotype 1B (assay: plaque reduction (PR) test). Settings: Enterovirus, read-out: PR(ED50).
Type: cell-based
Description: as §1
Detectable activity is measured with the plaque reduction assay. A range of concentrations of compound of known molarity are incorporated in the nutrient agarose overlay. Plaque suppression is proportional to compound concentration. Plaque numbers are expressed as percentages of a control, and a dose response curve may be drawn. From this curve 50% of the effective dose(ED50) may be estimated.

In the case of `c1ccc(N2CCc3ccccc3C2)cc1` [Example 4, 2-phenyl-1,2,3,4-tetrahydroisoquinoline], the EC50 is reported as 70 nM.

Same assay, conditions: Enterovirus; Activity versus rhinovirus serotype 1B; monolayer cell culture, compound in nutrient agarose overlay; read-out: PR(ED50)

Going from `Cc1cccc(C)c1N1CCc2ccccc2C1` [Example 13, 1,2,3,4-tetrahydro-2-(2,6-dimethylphenyl)isoquinoline] to `Cc1ccc(N2CCc3ccccc3C2)cc1` [Example 11, 1,2,3,4-tetrahydro-2-(4-methylphenyl)isoquinoline], the EC50 rises from 75 nM to 1000 nM (13-fold). The first is the more potent here.

First: c1ccc(C2COc3ccccc3C2)cc1 (centres unmarked) [Example 27, isoflavan]
Second: c1ccc(C2Cc3ccccc3CN2)cc1 (centres unmarked) [Example 26, 3-phenyl-1,2,3,4-tetrahydroisoquinoline]
The EC50 of the first is 2.8-fold higher: 820 nM for the first, 290 nM for the second.

First: Clc1ccc2c(c1)CCN(c1ccccc1)C2 [Example 18, 6-chloro-2-phenyl-1,2,3,4-tetrahydroisoquinoline]
Second: Clc1ccc2c(c1)CN(c1ccccc1)CC2 [Example 21, 7-chloro-2-phenyl-1,2,3,4-tetrahydroisoquinoline]
The EC50 of the first is 5.2-fold higher: 570 nM for the first, 110 nM for the second. The second is the more potent here.

First: c1ccc(C2CCc3ccccc3N2)cc1 (centres unmarked) [Example 24, 1,2,3,4-tetrahydro-2-phenylquinoline]
Second: c1ccc(C2CCc3ccccc3S2)cc1 (centres unmarked) [Example 1, thioflavan]
The EC50 of the first is 12-fold higher: 330 nM for the first, 28 nM for the second. The second is the more potent here.

Compared with `Fc1ccc(N2CCc3ccccc3C2)cc1` [Example 8, 1,2,3,4-tetrohydro-2-(4-fluorophenyl)isoquinoline], `Oc1ccc(N2CCc3ccccc3C2)cc1` [Example 15, 1,2,3,4-tetrahydro-2-(4-hydroxyphenyl)isoquinoline] is 8.8-fold higher in EC50: 210 nM for the first, 1850 nM for the second. The first is the more potent here.

Going from `Fc1ccc(N2CCc3cc(Cl)ccc3C2)cc1` [Example 20, 1,2,3,4-tetrahydro-2-(4-fluorophenyl)-6-chloroisoquinoline] to `Clc1ccc(N2CCc3cc(Cl)ccc3C2)cc1` [Example 19, 1,2,3,4-tetrahydro-2-(4-chlorophenyl)-6-chloroisoquinoline], the EC50 falls from 210 nM to 50 nM (4.2-fold).

Compared with `COc1ccc(N2CCc3ccccc3C2)c(OC)c1` [Example 16, 1,23,4-tetrahydro-2-(2-4-dimethoxyphenyl)isoquinoline], `COc1ccc(N2CCc3ccccc3C2)cc1` [Example 12, 1,2,3,4-tetrahydro-2-(4-methoxyphenyl)isoquinoline] is 3.3-fold lower in EC50: 8000 nM for the first, 2450 nM for the second.

Going from `Clc1ccc(C2CCc3cc(Cl)ccc3S2)cc1` (centres unmarked) [Example 3, 4',6-dichlorothioflavan] to `Clc1ccc(N2CCc3ccc(Cl)cc3C2)cc1` [Example 22, 7-chloro-2-(4-chlorophenyl)-1,2,3,4-tetrahydroisoquinoline], the EC50 rises from 44 nM to 130 nM (3-fold).

Compared with `Clc1ccc2c(c1)CN(c1ccc(Cl)c(Cl)c1)CC2` [Example 23, 7-chloro-2-(3,4-dichlorophenyl)-1,2,3,4-tetrahydroisoquinoline], `Clc1ccc(N2CCc3ccccc3C2)cc1` [Example 7, 1,2,3,4-tetrahydro-2-(4-chlorophenyl)isoquinoline] is 6.2-fold lower in EC50: 620 nM for the first, 100 nM for the second.

From patent publication US4801593A, “Chemotherapeutic agents” (Burroughs Wellcome Co., priority 1979, dated 1989)
